Test results as given in PMC10154249, “Unique progerin C-terminal peptide ameliorates Hutchinson–Gilford progeria syndrome phenotype by rescuing BUBR1” (Nature Aging, 2023).

Columns and labels:
[1] = test system: progerin–PTBP1 interaction; test: CoIP of progerin and PTBP1 in HEK-293T cells; type: cell-based; conditions: CoIP in HEK-293T; HGPS cells
Description: (§1) Detailed descriptions of CoIP were described previously[55],[56]. Cells were harvested and washed three times in cold PBS, then lysed in CoIP buffer (25 mM Tris-HCl (pH 7.5), 150 mM KCl, 5 mM EDTA, and 0.5% NP-40) plus protease inhibitor cocktail tablet (Roche). Incubate on ice and shock lysates on the vortex shaker 15 times for 30 s each. Microcentrifuge in 12,000g for 15 min at 4 °C, collect the supernatant, and incubate with 3 μg primary antibodies with gentle shaking overnight at 4 °C, followed by adding 20–40 μl Pure Proteome Protein A/G Mix Magnetic Beads (Millipore, catalog no. […]02) for 3 h. Wash the beads three times with 1 ml CoIP buffer for 8 min each, resuspend in 50 μl 1× loading buffer, and incubate at 100 °C for 8 min. Throw beads away and analyze by immunoblotting.

BUBR1–PTBP1 binding = test: CoIP of PTBP1 and BUBR1 in HEK-293T cells; type: cell-based; conditions: UPCP 18 μM, 48 h
Description: as §1

PTBP1–BUBR1 mRNA 3′-UTR = test: RIP assay of PTBP1 and BUBR1 mRNA 3′-UTR in HEK-293T cells; type: cell-based; conditions: for PTBP1 enrichment on BUBR1-3'UTR (2-ΔΔCt): Fig. 4n, PTBP1+progerin+UPCP, P=0.0491 vs PTBP1+progerin
Description: RIP and RNA pulldown assays were performed as previously described. The RIP experiment was carried out using the EZ-Magna RIP Kit (Millipore, catalog no. 17-701). The coprecipitated RNAs were extracted through Trizol reagent and detected by RT-PCR. The primer sequences for PCR, synthesized by Comate Bioscience, were as follows:
BUBR1-3′UTR_fwd (5′-[…]-3′) and BUBR1-3′UTR_rev (5′- […]-3′).

HGADFN003 cells = test: CyclinA2 immunofluorescence of HGADFN003 cells; type: cell-based, human
Description: (§2) Immunofluorescence was performed as described previously. Cells were plated on cover slips in 12-well plates, left overnight before the treatment. Cells were fixed in 1% formaldehyde in culture medium for 10 min at 37 °C and permeabilized with 0.2% Triton X-100 in PBS for 10 min at room temperature. Cells were washed twice in PBS and blocked for 1 h with 5% BSA in PBS and then incubated with primary antibodies at 4 °C overnight, washed three times in PBS and incubated with secondary antibodies for 1 h at room temperature. Cell nuclei were counterstained with a 500 nM concentration of 4,6-diamidino-2-phenylindole (DAPI) (Sigma). Images were acquired by a fluorescence microscope (OLYMPUS FV-1000, Carl Zeiss LSM880 or Leica DMi8) and analyzed with software NIS-Elements AR v.5.0.1 (Nikon), FLUOVIEW v.4.2b (OLYMPUS), ZEN v.2.3 SP1 (Carl Zeiss) and Leica Application Suite X v.3.6.0.24 (Leica). Cells were quantified by investigators who were blinded to the identity of the analyzed cell.

IMR90-progerin cells = test: 53BP1 foci in IMR90-progerin cells; type: cell-based, human; conditions: IMR90-Flag-progerin+UPCP
Description: as §2

senescent IMR90 cells = test: CCK8 cell viability of DNA damage-induced senescent IMR90 cells; type: cell-based, human; conditions: IMR90, 10 days after bleomycin, doxorubicin, ionizing radiation or etoposide
Description: Fibroblasts from patients with HGPS were obtained from The Progeria Research Foundation Cell and Tissue Bank (http://www.progeriaresearch.org). The following fibroblasts were used: HGADFN003, HGADFN167, HGMDFN090 and HGFDFN168. Human dermal fibroblasts (GM00038 and AG09602) were obtained from Coriell Cell Repository (https://catalog.coriell.org). These cells were characterized by DNA fingerprinting and isozyme detection and were tested by a MycoBlue Mycoplasma Detector (Vazyme Biotech) to exclude mycoplasma contamination before the experiments. […] HGADFN003, HGADFN167, HGMDFN090, HGFDFN168, GM00038 and AG09602 were cultured in DMEM medium with 15% (v/v) fetal bovine serum (VivaCell). […] For bleomycin-induced senescence, IMR90 cells were incubated with the culture medium containing 20 μg ml^–1 Bleomycin (Selleck, catalog no. S1214) for 2 h and analyzed 10 days later, or as otherwise indicated. For doxorubicin-induced senescence, IMR90 cells were treated twice with 100 nM Doxorubicin (Selleck, catalog no. S1208) with a 2 day interval and analyzed 10 days later, or as otherwise indicated. For ionizing radiation (IR)-induced senescence, IMR90 cells were exposed to 10 Gy Gamma rays, and analyzed 10 days later, or as otherwise indicated, the control IMR90 cells were mock irradiated. […]
Cell viability was assessed using the Cell Counting Kit-8 (CCK8) (APE, catalog no. k1018). […]

Substance: H-YGRKKRRQRRRYNLRSRTVLCGTCGQPADKASASGSGAQSPQNCSIM-OH (cysteines drawn unpaired) [UPCP, unique progerin C-terminal peptide]
- interaction of PTBP1 and progerin [1]: weakened the interaction of PTBP1 and progerin
- binding of BUBR1 to PTBP1 (BUBR1–PTBP1 binding): did not block the binding of BUBR1 to other proteins such as PTBP1
- PTBP1 enrichment on BUBR1-3'UTR (2-ΔΔCt) (PTBP1–BUBR1 mRNA 3′-UTR; replicate 1): 9.032
- PTBP1 enrichment on BUBR1-3'UTR (2-ΔΔCt) (PTBP1–BUBR1 mRNA 3′-UTR; replicate 2): 10.1759
- PTBP1 enrichment on BUBR1-3'UTR (2-ΔΔCt) (PTBP1–BUBR1 mRNA 3′-UTR; replicate 3): 11.8972
- binding of PTBP1 to BUBR1 mRNA 3ʹ-UTR (PTBP1–BUBR1 mRNA 3′-UTR; RIP and RNA pulldown, HEK-293T with or without UPCP): promoted PTBP1 to bind
- CyclinA2 positive cells (HGADFN003 cells; HGADFN003, 2h, replicate 1): 25%
- CyclinA2 positive cells (HGADFN003 cells; HGADFN003, 2h, replicate 2): 35.7143%
- CyclinA2 positive cells (HGADFN003 cells; HGADFN003, 2h, replicate 3): 33.3333%
- CyclinA2 positive cells (HGADFN003 cells; HGADFN003, 4h, replicate 1): 42.8571%
- CyclinA2 positive cells (HGADFN003 cells; HGADFN003, 4h, replicate 2): 43.4783%
- CyclinA2 positive cells (HGADFN003 cells; HGADFN003, 4h, replicate 3): 31.8182%
- CyclinA2 positive cells (HGADFN003 cells; HGADFN003, 6h, replicate 1): 35.2941%
- CyclinA2 positive cells (HGADFN003 cells; HGADFN003, 6h, replicate 2): 33.3333%
- CyclinA2 positive cells (HGADFN003 cells; HGADFN003, 6h, replicate 3): 45.8333%
- CyclinA2 positive cells (HGADFN003 cells; HGADFN003, 24h, replicate 1): 42.3077%
- CyclinA2 positive cells (HGADFN003 cells; HGADFN003, 24h, replicate 2): 41.1765%
- CyclinA2 positive cells (HGADFN003 cells; HGADFN003, 24h, replicate 3): 48.5714%
- CyclinA2 positive cells (HGADFN003 cells; HGADFN003, 48h, replicate 1): 59.0909%
- CyclinA2 positive cells (HGADFN003 cells; HGADFN003, 48h, replicate 2): 58.3333%
- CyclinA2 positive cells (HGADFN003 cells; HGADFN003, 48h, replicate 3): 56.7568%
- level of CyclinA2 (HGADFN003 cells; HGPS cells): increased level of CyclinA2
- 53BP1 foci per cell, n>10 (IMR90-progerin cells; replicate 1): 54%
- 53BP1 foci per cell, n≤10 (IMR90-progerin cells; replicate 1): 46%
- 53BP1 foci per cell, n>10 (IMR90-progerin cells; replicate 2): 43%
- 53BP1 foci per cell, n≤10 (IMR90-progerin cells; replicate 2): 57%
- 53BP1 foci per cell, n>10 (IMR90-progerin cells; replicate 3): 59%
- 53BP1 foci per cell, n≤10 (IMR90-progerin cells; replicate 3): 41%
- proliferation of DNA damage-induced senescent cells (senescent IMR90 cells): did not cause DNA damage-induced senescent cells to proliferate
